Source: ChEMBL document CHEMBL1201862, “PubChem BioAssay data set” (2004)
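A five-concentration, 48-hour dose response in 96-well plates underlies each endpoint, interpolated linearly between surrounding concentrations. GI50: concentration for 50% inhibition of growth.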 Calls of active or inactive are those of the source. Cut-off read from the data, not from the text of the source: active = GI50 up to about 1.1 µM and inactive = higher.

Assays:
Assay in all cases: DTP human tumour cell line panel, 48 h
MCF7 = test system: MCF7
ACHN = test system: ACHN
SK-MEL-2 = test system: SK-MEL-2
SK-MEL-5 = test system: SK-MEL-5
SF-295 = test system: SF-295
M14 = test system: M14
CAKI-1 = test system: CAKI-1
MDA-MB-231 = test system: MDA-MB-231
KM12 = test system: KM12
HCT-116 = test system: HCT-116
SN12C = test system: SN12C
MOLT-4 = test system: MOLT-4
OVCAR-3 = test system: OVCAR-3
786-0 = test system: 786-0
UACC-257 = test system: UACC-257
NCI-H226 = test system: NCI-H226
MDA-MB-435 = test system: MDA-MB-435
CCRF-CEM = test system: CCRF-CEM
SK-OV-3 = test system: SK-OV-3

Measured: GI50

C=CC(=O)N1C/C(=C\c2ccc(N(C)C)cc2)C(=O)/C(=C/c2ccc(N(C)C)cc2)C1
inactive: MCF7 4.73 µM | ACHN > 100 µM | SK-MEL-2 > 100 µM | SK-MEL-5 > 100 µM | SF-295 18.5 µM | M14 > 100 µM | CAKI-1 > 100 µM | MDA-MB-231 > 100 µM | KM12 8.67 µM | HCT-116 40.6 µM | SN12C > 100 µM | MOLT-4 25.8 µM | OVCAR-3 41.3 µM | 786-0 42.1 µM | UACC-257 > 100 µM | NCI-H226 > 100 µM | MDA-MB-435 87.5 µM

CC1=NN(c2nc(N)nc(C/C(N)=N/O)n2)C(C)(C)C1
inactive: MCF7 > 100 µM | ACHN > 100 µM | SK-MEL-5 > 100 µM | SF-295 > 100 µM | M14 > 100 µM | CAKI-1 > 100 µM | MDA-MB-231 > 100 µM | KM12 > 100 µM | HCT-116 > 100 µM | SN12C > 100 µM | MOLT-4 > 100 µM | OVCAR-3 > 100 µM | 786-0 > 100 µM | UACC-257 > 100 µM | CCRF-CEM > 100 µM | NCI-H226 > 100 µM | SK-OV-3 > 100 µM | MDA-MB-435 > 100 µM

CC(=O)c1c(C)n(C)c2c1nnc1ccccc12
inactive: MCF7 26.5 µM | ACHN 34.4 µM | SK-MEL-2 > 100 µM | SK-MEL-5 32 µM | SF-295 40.2 µM | M14 67.8 µM | CAKI-1 35.7 µM | MDA-MB-231 59 µM | KM12 47.6 µM | HCT-116 33.7 µM | SN12C 40.3 µM | OVCAR-3 > 100 µM | 786-0 36 µM | UACC-257 > 100 µM | CCRF-CEM 54.2 µM | NCI-H226 31.6 µM | SK-OV-3 32.8 µM | MDA-MB-435 61.7 µM

COC(=O)C1Cc2c(OC)ccc(OC)c2CC(C(=O)OC)C1=O (stereo unspecified)
inactive: MCF7 > 100 µM | ACHN 63.5 µM | SK-MEL-5 > 100 µM | SF-295 > 100 µM | M14 > 100 µM | CAKI-1 > 100 µM | MDA-MB-231 > 100 µM | KM12 > 100 µM | HCT-116 > 100 µM | SN12C > 100 µM | MOLT-4 > 100 µM | OVCAR-3 > 100 µM | 786-0 > 100 µM | UACC-257 > 100 µM | CCRF-CEM > 100 µM | NCI-H226 > 100 µM | SK-OV-3 > 100 µM | MDA-MB-435 > 100 µM
